Laboratory results as given in US6358883B1, “Pesticidal and parasiticidal use of 1-aryl-1-(substituted thio, sulfinyl and sulfonyl)-2-nitroethane compounds” (American Cyanamid Company, priority 1998, dated 2002).
Where two headings read alike, the source gives them in different places.

Assays:
[1] = system: M. incognita (Root Knot Nematode) larvae; assay: Evaluation of test compounds against M. incognita larvae in microtiter plate wells (movement score); type: in vivo; settings: larvae scored for movement after 20-24 hours; note: key: A score of '9' indicates inactive worms with a straight, sticklike morphology; A score of '8' indicates inactive worms with a limp, curled or curved morphology; A score of '7' indicates dead/paralyzed worms after 72 hours
Summary of the method: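 Scoring is by larval movement: dead or paralyzed worms count as positive, and a "7" means dead/paralyzed at 72 hours. Freshly hatched root-knot larvae (50-65 per well) in buffered S Medium were incubated with compounds under plate sealers for 20-24 h before the first read.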

[2] = system: C. elegans (Bristol strain); assay: Evaluation of test compounds against C. elegans (motility, 96-well plate); type: in vivo; parameters: key: 9=complete kill in 4 hours; 8=complete kill in 24 hours; 7=markedly reduced motility in approximately 95% of worms in 24 hours; 0=normal motility, same as controls; settings: motility at 4 and 24 hours
Summary of the method: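 Activity is a semi-quantitative visual score of adult and larval movement, read at 4 h and 24 h post-immersion at 20 °C after gentle tapping. Worms were suspended in Na buffer in wells where compound, dissolved in 80% acetone, had been evaporated.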

[3] = system: Diabrotica undecimpunctata howardi, eggs-southern corn rootworm (SCR-Eggs); assay: Southern corn rootworm eggs (SCR-Eggs) treated diet test; type: in vivo; parameters: key: 0 = no effect; 1 = 10-25% kill; 2 = 26-35% kill; 3 = 36-45% kill; 4 = 46-55% kill; 5 = 56-65% kill; 6 = 66-75% kill; 7 = 76-85% kill; 8 = 86-99% kill; 9 = 100% kill; settings: mortality after 7 days
Summary of the method: (§1)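 Eggs of S. eridania or D. undecimpunctata howardi were set on artificial diet pretreated with test solution (10,000 ppm stock in 35% aqueous acetone, water dilutions) and dried. Wells were sealed with vented clear covers, and mortality was scored at day 7.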

[4] = system: Spodoptera eridania, eggs-southern armyworm (SAW-Eggs); assay: Southern armyworm eggs (SAW-Eggs) treated diet test; type: in vivo; parameters: key: 0 = no effect; 1 = 10-25% kill; 2 = 26-35% kill; 3 = 36-45% kill; 4 = 46-55% kill; 5 = 56-65% kill; 6 = 66-75% kill; 7 = 76-85% kill; 8 = 86-99% kill; 9 = 100% kill; settings: mortality after 7 days
Summary of the method: as §1

[5] = system: Root-knot nematode, Meloidogyne incognita J2 larvae; settings: potted tomato, scored 4 weeks following inoculation
Text: Soil Nematicide Assay Targeting Root-knot Nematode, Meloidogyne Incognita on Potted Tomato
The test compound is solubilized in acetone and diluted with water to the required test concentration. Silty loam soil in a 3 inch pot with a 3-week-old tomato transplant is drenched with the test solution. Four thousand root-knot nematode Meloidogyne incognita J2 larvae are dispensed in a aqueous suspension onto the soil. The pots are kept in the greenhouse and 4 weeks following inoculation of the pots, plant roots are washed free of soil and scored for the degree of root galling using the root-knot galling index identified below.

[6] = system: Aphis gossypii, cotton aphid (CA); assay: Cotton aphid (CA) cotyledon dip test; type: in vivo; parameters: key: 0 = no effect; 1 = 10-25% kill; 2 = 26-35% kill; 3 = 36-45% kill; 4 = 46-55% kill; 5 = 56-65% kill; 6 = 66-75% kill; 7 = 76-85% kill; 8 = 86-99% kill; 9 = 100% kill; settings: mortality after 5 days
Summary of the method: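 Mortality was scored 5 days after dipping aphid-infested cotyledons, colonised overnight from a transfer leaf, into water dilutions of a 35% acetone/water compound solution.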

[7] = system: Diabrotica virgifera virgifera Leconte, 2nd instar western corn rootworm (WCR); assay: Western corn rootworm (WCR) soil test; type: in vivo; parameters: key: 0 = no effect; 1 = 10-25% kill; 2 = 26-35% kill; 3 = 36-45% kill; 4 = 46-55% kill; 5 = 56-65% kill; 6 = 66-75% kill; 7 = 76-85% kill; 8 = 86-99% kill; 9 = 100% kill
Summary of the method: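 Ten 2nd-instar rootworm larvae are placed in jars of moist soil with millet seed and talc treated with 1.25 mg active ingredient (roughly 50 kg/ha) from a 35% acetone-in-water solution. After 5 days mortality is scored, counting missing larvae as dead.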

[8] = system: Spodoptera eridania, 2nd instar larvae, southern armyworm (SAW); assay: Southern armyworm (SAW) leaf dip test; type: in vivo; parameters: key: 0 = no effect; 1 = 10-25% kill; 2 = 26-35% kill; 3 = 36-45% kill; 4 = 46-55% kill; 5 = 56-65% kill; 6 = 66-75% kill; 7 = 76-85% kill; 8 = 86-99% kill; 9 = 100% kill
Summary of the method: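 Ten 2nd instar caterpillars feed on a Sieva lima bean leaf that was dipped 3 seconds in test solution (stock 10,000 ppm in 35% acetone/water, water-diluted). Five days later, larvae are assessed for death, feeding reduction or abnormal molting.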

[9] = system: Tetranychus urticae (OP-resistant strain), 2-spotted spider mite (TSM); assay: 2-spotted spider mite (TSM) plant dip test; type: in vivo; parameters: key: 0 = no effect; 1 = 10-25% kill; 2 = 26-35% kill; 3 = 36-45% kill; 4 = 46-55% kill; 5 = 56-65% kill; 6 = 66-75% kill; 7 = 76-85% kill; 8 = 86-99% kill; 9 = 100% kill; settings: mortality after 2 days
Summary of the method: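 Mortality counted 2 days after a 3 s agitated dip of infested Sieva lima bean plants. Compound came from a 10,000 ppm stock in 35% aqueous acetone, with further dilution in water. Each primary leaf carried about 100 OP-resistant mites, allowed to settle ~2 h before dipping.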

Row | SMILES | M. incognita (150 ppm) score [1] | Rating Against C. elegans (150 ppm) [2] | SCR Eggs (1000 ppm) rating [3] | SAW Eggs (300 ppm) rating [4] | Galling Index ([5]; Rate 10 ppm soil drench) | Galling Index ([5]; Rate 25 ppm soil drench) | Galling Index ([5]; Rate 50 ppm soil drench) | CA (300 ppm) rating [6] | WCR (50 ppm) rating [7] | SAW (300 ppm) rating [8] | TSM (300 ppm) rating [9]
1 | O=C(O)CSC(C[N+](=O)[O-])c1ccccc1 (stereo not drawn) [Example 1, {[alpha-(nitromethyl)benzyl]thio}-acetic acid] | 9 | 9 | 0 | 0 | 1 (10) | 0 (0) | 0 (0) |  |  |  | 
2 | O=C(CSC(C[N+](=O)[O-])c1cccnc1)OCc1ccccc1 (centres unmarked) [Example 174] | 9 | 0 | 0 | 0 |  |  |  | 0 | 0 | 0 | 0
3 | CCCSC(C[N+](=O)[O-])c1cccnc1 (centres unmarked) [Example 175] | 9 | 0 | 0 | 0 |  |  |  | 0 | 0 | 0 | 0
4 | C=CCSC(C[N+](=O)[O-])c1cccnc1 (centres unmarked) [Example 176] | 9 | 0 | 0 | 0 |  |  |  | 0 | 0 | 0 | 0
5 | O=[N+]([O-])CC(SCc1ccccc1)c1cccnc1 (centres unmarked) [Example 177] | 9 | 0 | 0 | 0 |  |  |  | 0 | 0 | 0 | 0
6 | CCCOC(=O)CSC(C[N+](=O)[O-])c1cccnc1 (centres unmarked) [Example 178] | 9 | 0 | 0 | 0 |  |  |  | 0 | 0 | 0 | 0
